Where “and” joins values, the source holds several entries; their conditions need not be identical. Identical values can stand only once. Entries after “also recorded” stand apart in the source; their conditions may differ.
Experiments:
LSD-trained rats = details: ref [6],[7]; cited from earlier work
5-HT2A receptor [1] = details: ref Trachsel et al., 2009 [23]; cited from earlier work
5-HT2A receptor [2] = details: ref Trachsel et al., 2009 [23]; cited from earlier work; remark: listed apart in the source
human 5-HT2A receptor [3] = target: T1, human 5-HT2A receptor (Homo sapiens, UniProt P28223); test: biochemical; format: binding; details: for displacement of [3H]ketanserin from the human 5-HT2A receptor: at 10 μM concentration
human 5-HT2C receptor [4] = target: T2, human 5-HT2C receptor (Homo sapiens, UniProt P28335); test: Radioligand displacement binding, [3H]mesulergine, HeLa-5-HT2C cell membranes; details: for Ki: [3H]mesulergine displacement, mean ± range of two independent assays; for 5-HT2A/2C: ratio of Ki 5-HT2A / Ki 5-HT2C; for selectivity for the 5-HT2C receptor: 5-HT2C over 5-HT2A
T2 sequence (P28335 33-458): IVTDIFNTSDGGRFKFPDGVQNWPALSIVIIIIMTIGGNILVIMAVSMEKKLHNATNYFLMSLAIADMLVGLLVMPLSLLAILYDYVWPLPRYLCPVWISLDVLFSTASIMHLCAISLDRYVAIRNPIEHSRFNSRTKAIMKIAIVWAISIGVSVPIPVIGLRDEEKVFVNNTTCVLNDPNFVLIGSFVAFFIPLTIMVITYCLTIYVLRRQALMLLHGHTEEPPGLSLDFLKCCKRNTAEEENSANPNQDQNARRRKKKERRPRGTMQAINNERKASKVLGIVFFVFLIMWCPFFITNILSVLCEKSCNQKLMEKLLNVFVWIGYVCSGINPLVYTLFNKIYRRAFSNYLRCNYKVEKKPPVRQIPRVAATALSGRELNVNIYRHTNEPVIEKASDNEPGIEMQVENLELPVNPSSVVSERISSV

human 5-HT2A receptor [5] = target: T1, human 5-HT2A receptor; test: Functional Ca2+ mobilization fluorescence assay in CHO-5-HT2A cells; format: cell-based; details: for Emax at 100 µM: read-out: % Emax 5-HT2A, % maximum response (5-HT) at 100 μM; for agonist character at 5-HT2A receptor: in words
human 5-HT2C receptor [6] = target: T2, human 5-HT2C receptor; test: Functional Ca2+ mobilization fluorescence assay in HeLa-5-HT2C cells; format: cell-based; details: for agonist character at 5-HT2C receptor: functional assay, in words; for Emax at 100 µM: read-out: % Emax 5-HT2C
[7] = hydrochlorides; ref [12],[13]; cited from earlier work

T1 sequence (P28223 whole entry): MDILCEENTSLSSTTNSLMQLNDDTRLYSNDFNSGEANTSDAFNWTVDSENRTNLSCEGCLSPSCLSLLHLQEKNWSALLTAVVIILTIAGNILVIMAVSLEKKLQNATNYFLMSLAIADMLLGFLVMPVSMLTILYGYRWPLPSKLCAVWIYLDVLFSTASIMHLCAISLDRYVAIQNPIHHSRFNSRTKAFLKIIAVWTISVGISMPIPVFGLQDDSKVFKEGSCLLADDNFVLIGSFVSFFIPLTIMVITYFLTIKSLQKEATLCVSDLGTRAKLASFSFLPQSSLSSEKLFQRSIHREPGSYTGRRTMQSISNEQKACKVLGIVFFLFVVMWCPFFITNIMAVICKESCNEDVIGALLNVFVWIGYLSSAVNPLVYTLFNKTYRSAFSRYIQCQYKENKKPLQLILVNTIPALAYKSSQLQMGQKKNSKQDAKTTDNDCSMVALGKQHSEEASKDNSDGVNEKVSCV

| Structure (SMILES) | Ki (human 5-HT2A receptor [3]) [nM] | displacement of [3H]ketanserin from the human 5-HT2A receptor (human 5-HT2A receptor [3]) [%] | Ki at the human 5-HT2C receptor (in words) (human 5-HT2C receptor [4]) | Ki (human 5-HT2C receptor [4]; Ki 5-HT2C) | 5-HT2A/2C (human 5-HT2C receptor [4]) | EC50 (human 5-HT2A receptor [5]) [nM] | Emax at 100 µM (human 5-HT2A receptor [5]) [%] | agonist character at 5-HT2C receptor (human 5-HT2C receptor [6]) | Emax at 100 µM (human 5-HT2C receptor [6]) [%] | EC50 (human 5-HT2C receptor [6]) [nM] | further results |
| --- | --- | --- | --- | --- | --- | --- | --- | --- | --- | --- | --- |
| NCCc1c2c(cc3c1OCC3)OCC2 [2C-H-Fly] |  |  |  |  |  |  |  |  |  |  | drug discrimination response (LSD-trained rats): positive drug discrimination response |
| COc1cc(-c2ccccc2)c(OC)cc1CCN [2C-phenyl, 2-(2,5-dimethoxy-4-phenylphenyl)ethanamine] |  |  |  |  |  |  |  |  |  |  | pKi at the 5-HT2A receptor (5-HT2A receptor [1]): 6.11; functional character at 5-HT2A receptor (5-HT2A receptor [2]): antagonist |
| Cl.NCCc1ccc2oc3ccccc3c2c1 [Compound 1, 2-(Dibenzo[b,d]furan-2-yl)ethanamine Hydrochloride] | > 10000 | < 50 | submicromolar | 737 nM | > > 14 | 22600 | 66.1 | extremely weak partial agonists | 49.1 |  | toxicity (in words) [7]: toxic |
| CC(N)Cc1ccc2oc3ccccc3c2c1.Cl (centres unmarked) [Compound 2, 1-(Dibenzo[b,d]furan-2-yl)propan-2-amine Hydrochloride] | > 10000 | < 50 | submicromolar | 474 nM | > > 21 |  | 64 | moderately potent full agonist activity | 112 | 3520 ± 740 |  |
| COc1cc2c(cc1CCN)oc1ccccc12.Cl [Compound 3, 2-(2-Methoxydibenzo[b,d]furan-3-yl)ethanamine Hydrochloride] | > 10000 | < 50 | submicromolar | 204 nM | > 49 | 32400 | 58.2 | extremely weak partial agonists | 54 | 53200 | agonist character at 5-HT2A receptor (human 5-HT2A receptor [5]; functional assay): very weak partial agonist; toxicity (in words) [7]: toxic |
| Cl.NCCc1cccc2c1oc1ccccc12 [Compound 4, 2-(Dibenzo[b,d]furan-4-yl)ethanamine Hydrochloride] | > 10000 | < 50 | submicromolar | 140 nM | > 71 | 3330 ± 830 |  | moderately potent full agonist activity; also recorded: full agonists | 98 | 1380 ± 190 | selectivity for the 5-HT2C receptor (human 5-HT2C receptor [4]): > 70 fold; Ki (human 5-HT2C receptor [4]; pKi 5-HT2C): 145 nM; % Emax 5-HT2A (human 5-HT2A receptor [5]; % maximum response (5-HT) at 100 μM): 88.21 ± 2.79%; EC50 at 5-HT2A receptor (in words) (human 5-HT2A receptor [5]; functional assay): low micromolar |
| COc1ccc2oc3ccccc3c2c1CCN.Cl [Compound 5, 2-(2-Methoxydibenzo[b,d]furan-1-yl)ethanamine Hydrochloride] | 2550 |  |  | 35 nM and 35.3 nM | 72 | 14500 | 59 | full agonists | 106 | 222 ± 41 | Ki at the h5-HT2A receptor (in words) (human 5-HT2A receptor [3]): low micromolar; selectivity for the 5-HT2C receptor (human 5-HT2C receptor [4]): > 70 fold; agonist character at 5-HT2A receptor (human 5-HT2A receptor [5]; functional assay): partial agonist; times weaker as agonist at 5-HT2A than at 5-HT2C (human 5-HT2A receptor [5]; functional potency 5-HT2A vs 5-HT2C): 70 times |
